From patent US20050282757A1, “Peptide boronic acid compounds useful in anticoagulation” (Trigen Limited, priority 2002, published 2005)
Values joined by “and” are separate entries in the source; they are usually repeats but may differ in a detail not shown here. Equal entries are not always repeated. “Also recorded” adds a separate entry of the source. Marks after values point to notes of the source that are not given here.

Legend:
[1] = Stability in enteric-coated hard gelatin capsules, HPLC-PDA (Example 41); assay type: physicochemical; details: for Amount of Tri50c: 10 mg content in 10 ml
Experimental: TRI 50c-standard (free acid) was stored in a desiccator over phosphorus pentoxide for 2 days for drying. Afterwards, the reference standard was weighed in a volumetric flask and dissolved in a mixture of acetonitrile and water (25/75 v/v %). Aliquots of the resulting solution (ST 1A) were diluted successively with water as shown in the dilution scheme of table 4.
The stored capsules of every batch at corresponding climatic condition were removed and 10 mg of the content was weighed in a 10 ml volumetric flask and dissolved in 10 ml of a mixture of acetonitrile/water (25/75 v/v %). These solutions were injected for impurity profile analysis and for quantification respectively.
The quantitative evaluation and the impurity profile analysis were performed using an HPLC-PDA method. The processing wavelength was set as 258 nm.

thrombin time [2] = assay: Intraduodenal absorption in rat, thrombin time (Examples 42 and 44); assay type: in vivo, male Wistar rats; set-up: Mean increase in thrombin time / Thrombin time increase: unit not given here; details: for Group mean thrombin time (s ± sd): 20 mg/kg intraduodenal
Experimental: • Place 10 mg of the relevant compound in an Eppendorf cup • Add 0.5 mL ethanol and shake for 10 minutes • Sonicate for 10 minutes • Add 1.5 mL of buffer • Shake for additional 15 minutes • Resulting target concentration: 5 mg/mL B. Intraduodenal Studies
The intraduodenal studies were performed using male Wistar rats, approximately 8 weeks of age and weighing between 250 and 300 g.
Food was withheld overnight prior to dosing and returned approximately 2 hours post-dose. Water was available ad libitum.
Animals were anaesthetised using gaseous halothane. A small incision was made in the abdomen and the duodenum located. Each animal received a single administration of control or test article by injection directly into the duodenum, using a constant dose volume of 4 mL/kg. Following administration the incision was closed using surgical staples.
Individual dose volumes were based on individual body weights, obtained on the day of dosing. Treatments employed for the study were as follows:
(§1) Approximately 0.6 mL of blood was collected via a tail vein into 3.8% tri sodium citrate tubes approximately 48 hours prior to dosing and again at 0.5, 1, 2, 4 and 8 hours post-dose.
(§2) Plasma was prepared by centrifugation at […] for 10 minutes at 4° C. Plasma was stored frozen (nominally −20° C.) prior to analysis in an automated coagulometer.
The thrombin times determined in example 42 were analysed to determine the standard deviation for increase in thrombin time, expressed as a percentage of the mean value (this is sometimes called the ‘coefficient of variation’).

thrombin time [3] = assay: Oral absorption in rat, thrombin time (Example 43); assay type: in vivo, male Wistar rats; details: 20 mg/kg oral gavage
Experimental: The procedure of Example 42 was followed.
The per-oral studies were performed using male Wistar rats, approximately 8 weeks of age and weighing between 250 and 300 g.
Food was withheld overnight prior to dosing and returned approximately 2 hours post-dose. Water was available adlibitum.
Each animal received a single administration of control or test article by oral gavage, using a constant dose volume of 4 mL/kg.
Individual dose volumes were based on individual body weights, obtained on the day of dosing.
as §1, §2

Thrombin Time (TT) = assay: Oral administration of TGN 167 tablets to healthy male subjects (Example 47); assay type: in vivo, human
Experimental: TGN 167 tablets described above were administered via the oral route to 10 healthy male subjects as single doses (randomised double blind placebo controlled study). The group consisted of 10 healthy male volunteers, 9 of whom received active compound and one of whom received placebo. An amendment was introduced for the last panel, allowing 15 subjects (instead of 9) to receive a 600 mg dose. The interval between each dose of TGN 167 was one week minimum. The allocation of the placebo was such that each volunteer would only receive placebo once during the course of the study.
Orally administered doses were: 75 mg (one tablet), 150 mg (two tablets), 300 mg (four tablets) and 600 mg (eight tablets).

[4] = Comparative storage stability of sodium and calcium salts (Example 49); assay type: physicochemical; details: for Tri50c (w/w %, LOD corr.): corrected for loss on drying
Description: In both studies the active pharmaceutical ingredient was stored in grip sealed double bags within a PE/PP screw cap closed cylinder.

thrombin time and APTT = assay: Oral administration in dog, PK/PD (Example 45)
Experimental: Three female and three male dogs were used for each leg of the study. The weight range of the dogs was 8-18 kg.
The PD was measured as thrombin time and APTT using an automated coagulometer. Plasma concentrations were measured using an LCMS/MS method.
The dose was tailored on an individual basis for each dog.

[5] = capsules (no blister) 40° C./75% r.h.
[6] = capsules in blister 25° C./60% r.h.
[7] = capsules in blister 40° C./75% r.h.
[8] = individual rats dosed intraduodenally, listed as Ca Salt, hemicalcium salt, in s

## COCCC[C@H](NC(=O)[C@@H]1CCCN1C(=O)[C@@H](Cc1ccccc1)NC(=O)OCc1ccccc1)B([O-])O.COCCC[C@H](NC(=O)[C@@H]1CCCN1C(=O)[C@@H](Cc1ccccc1)NC(=O)OCc1ccccc1)B([O-])O.[Ca+2] [TRI 50c calcium salt, Cbz-(R)-Phe-(S)-Pro-(R)-Mpg-B(OH)2 hemicalcium salt]
[1]; [5]
  Benzaldeh. % Area in impurity profile: 3.64 % Area
  Imp.I % Area in impurity profile: 0.84 % Area
  Amount of Tri50c: 780.097 µg/mL
[1]; [6]
  Benzaldeh. % Area in impurity profile: 1.29 % Area
  Amount of Tri50c: 930.903 µg/mL
[1]; [7]
  Benzaldeh. % Area in impurity profile: 2.37 % Area
  Amount of Tri50c: 786.223 µg/mL
[1]; capsules in blister, 1.5 month 25° C./60% r.h., hemicalcium salt
  Purity (HPLC % Area) T1: 98.0 HPLC % Area
[1]; capsules in blister, 1.5 month 25° C./60% r.h., listed as TRI50C Ca Salt, hemicalcium salt
  Purity (HPLC % Area) T1: 98.02 HPLC % Area
[1]; capsules in blister, 1.5 month 40° C./75% r.h., hemicalcium salt
  Purity (HPLC % Area) T1: 97.2 HPLC % Area
[1]; capsules in blister, 1.5 month 40° C./75% r.h., listed as TRI50C Ca Salt, hemicalcium salt
  Purity (HPLC % Area) T1: 97.19 HPLC % Area
[1]; capsules without blister, 1.5 month 40° C./75% r.h., hemicalcium salt
  Purity (HPLC % Area) T1: 95.0 HPLC % Area
[1]; capsules without blister, 1.5 month 40° C./75% r.h., listed as TRI50C Ca Salt, hemicalcium salt
  Purity (HPLC % Area) T1: 94.96 HPLC % Area
[1]; purity of the batch before storage, hemicalcium salt
  Purity (HPLC % Area) T0: 99.2^2) HPLC % Area and 99.2^2 HPLC % Area
Thrombin time [2]; 0.5 hour
  Group mean thrombin time (s ± sd): 42.0 ± 6.74 s
Thrombin time [2]; 1 hour
  Group mean thrombin time (s ± sd): 34.0 ± 1.89 s
Thrombin time [2]; 2 hour
  Group mean thrombin time (s ± sd): 22.6 ± 5.10 s
Thrombin time [2]; 4 hour
  Group mean thrombin time (s ± sd): 24.4 ± 2.41 s
Thrombin time [2]; 8 hour
  Group mean thrombin time (s ± sd): 22.4 ± 1.73 s
Thrombin time [2]; −48 hour (pre-dose)
  Group mean thrombin time (s ± sd): 21.6 ± 1.77 s
Thrombin time [2]; 0.5 h minus 0 h, intraduodenal
  Mean increase in thrombin time: 20.50
Thrombin time [2]; [8]
  Thrombin time, 0 h: 21.97 and 18.75 and 23.57 and 21.57
  Thrombin time, 0.5 h: 35.32 and 45.98 and 37.27 and 49.30
Thrombin time [2]; individual rats, 0.5 h minus 0 h, listed as Ca Salt, hemicalcium salt
  Thrombin time increase: 13.35 and 27.23 and 13.70 and 27.73
Thrombin time [3]; 0.5 hour
  Group mean thrombin times (s ± sd): 25.9 ± 3.05 s
Thrombin time [3]; 1 hour
  Group mean thrombin times (s ± sd): 25.7 ± 1.94 s
Thrombin time [3]; 2 hour
  Group mean thrombin times (s ± sd): 24.3 ± 0.98 s
Thrombin time [3]; 4 hour
  Group mean thrombin times (s ± sd): 25.0 ± 1.31 s
Thrombin time [3]; 8 hour
  Group mean thrombin times (s ± sd): 22.9 ± 3.46 s
Thrombin time [3]; −48 hour (pre-dose)
  Group mean thrombin times (s ± sd): 23.4 ± 1.25 s
Thrombin Time (TT); oral 75, 150, 300, 600 mg
  safety assessments: No clinically significant findings
Thrombin Time (TT); oral tablets
  time after administration at which all TT had returned to baseline: 10 h
Thrombin Time (TT); oral tablets 75-600 mg
  effect on thrombin time (TT): dose-related increase in the Thrombin Time (TT)
Thrombin Time (TT); study period of 24 hours, any dose
  adverse clinical events: no adverse clinical events of either a general or cardiovascular nature
[4]; T = 0
  Color: white
  TRI 50c (% peak area): 99.4 % peak area
  Tri50c (w/w %, LOD corr.): 99.7 w/w %
[4]; T = 0, hemicalcium salt
  Appearance: powdery,; also recorded: odourless
[4]; T = 1, 25° C./60% r.h.
  Appearance: powdery
  Color: white
  TRI 50c (% peak area): 98.3 % peak area
  Tri50c (w/w %, LOD corr.): 101.5 w/w %
[4]; T = 1, 40° C./75% r.h.
  Appearance: powdery
  Color: white
  TRI 50c (% peak area): 95.2 % peak area
  Tri50c (w/w %, LOD corr.): 100.6 w/w %
[4]; T = 1, −20° C.
  Appearance: powdery
  Color: white
  TRI 50c (% peak area): 99.1 % peak area
  Tri50c (w/w %, LOD corr.): 102.7 w/w %
[4]; T = 3, 25° C./60% r.h.
  Appearance: powdery
  Color: white
  TRI 50c (% peak area): 97.5 % peak area
  Tri50c (w/w %, LOD corr.): 104.3 w/w %
[4]; T = 3, 40° C./75% r.h.
  Appearance: powdery
  Color: white
  TRI 50c (% peak area): 71.2 % peak area
  Tri50c (w/w %, LOD corr.): 82.0 w/w %
[4]; T = 3, −20° C.
  Appearance: powdery
  Color: white
  TRI 50c (% peak area): 99.2 % peak area
  Tri50c (w/w %, LOD corr.): 103.0 w/w %
[4]; T = 12, 25° C./60% r.h.
  TRI 50c (% peak area): 96.9 % peak area
  Tri50c (w/w %, LOD corr.): 94.8 w/w %
Thrombin time and APTT
  mean thrombin clotting time 8 hours post dose: 20.2 s
  time of peak thrombin time post dose: three hours post dose
Thrombin time and APTT; 3 hours following administration, from 14.5 seconds
  mean APTT at peak: 18 s
Thrombin time and APTT; base line 15 seconds (calcium salt), 15.4 seconds (TRI 50c)
  mean thrombin clotting time at peak (C max): 80.5 s
Thrombin time and APTT; enterically coated gelatine capsules
  tolerance: tolerated well with no adverse events
Thrombin time and APTT; estimated from thrombin clotting times
  estimated bioavailability in some animals: ≤ 50%
Thrombin time and APTT; estimated from thrombin clotting times, including two lower responders
  mean estimated bioavailability: 25%
Thrombin time and APTT; individual dogs
  peak thrombin clotting times achieved by all dogs: up to 148 seconds
